In the NIST ThermoML archive (doi:10.1016/j.jct.2007.05.011):

Assay: xn = mol fraction of the nth substance listed
Conditions: 101 kPa, Liquid; for mass density: Vibrating tube method

NCCO.O=CO [2-hydroxyethylammonium formate] + CO
Conditions | mass density [kg/m3] | speed of sound [m/s]
305.65 K, x2 = 0 | – | 1690.8
305.65 K, x2 = 0.055 | – | 1708.1
305.65 K, x2 = 0.098 | – | 1696.5
305.65 K, x2 = 0.193 | – | 1665.8
305.65 K, x2 = 0.296 | – | 1628.2
305.65 K, x2 = 0.399 | – | 1584.1
305.65 K, x2 = 0.5 | – | 1532.8
305.65 K, x2 = 0.598 | – | 1474
305.65 K, x2 = 0.701 | – | 1403.2
305.65 K, x2 = 0.799 | – | 1318
305.65 K, x2 = 0.9 | – | 1213.2
305.65 K, x2 = 0.951 | – | 1148.9
308.15 K, x2 = 0 | 1169.39 | 1684.8
308.15 K, x2 = 0.055 | 1162.82 | 1702.9
308.15 K, x2 = 0.098 | 1156.3 | 1691.3
308.15 K, x2 = 0.193 | 1139.55 | 1660.5
308.15 K, x2 = 0.296 | 1118.84 | 1622.8
308.15 K, x2 = 0.399 | 1094.27 | 1578.5
308.15 K, x2 = 0.5 | 1065.38 | 1527.1
308.15 K, x2 = 0.598 | 1031.9 | 1468
308.15 K, x2 = 0.701 | 990.06 | 1396.8
308.15 K, x2 = 0.799 | 937.959 | 1311.2
308.15 K, x2 = 0.9 | 869.95 | 1206
308.15 K, x2 = 0.951 | 826.572 | 1141.2
310.65 K, x2 = 0 | 1167.62 | 1678.7
310.65 K, x2 = 0.055 | 1161.16 | 1697.8
310.65 K, x2 = 0.098 | 1154.64 | 1686.1
310.65 K, x2 = 0.193 | 1137.87 | 1655.3
310.65 K, x2 = 0.296 | 1117.13 | 1617.4
310.65 K, x2 = 0.399 | 1092.53 | 1573
310.65 K, x2 = 0.5 | 1063.59 | 1521.4
310.65 K, x2 = 0.598 | 1030.06 | 1462
310.65 K, x2 = 0.701 | 988.146 | 1390.5
310.65 K, x2 = 0.799 | 935.95 | 1304.5
310.65 K, x2 = 0.9 | 867.803 | 1198.7
310.65 K, x2 = 0.951 | 824.316 | 1133.6
313.15 K, x2 = 0 | 1165.84 | 1672.7
313.15 K, x2 = 0.055 | 1159.51 | 1692.7
313.15 K, x2 = 0.098 | 1152.98 | 1681
313.15 K, x2 = 0.193 | 1136.19 | 1650
313.15 K, x2 = 0.296 | 1115.42 | 1612
313.15 K, x2 = 0.399 | 1090.78 | 1567.5
313.15 K, x2 = 0.5 | 1061.81 | 1515.6
313.15 K, x2 = 0.598 | 1028.22 | 1456
313.15 K, x2 = 0.701 | 986.228 | 1384.2
313.15 K, x2 = 0.799 | 933.936 | 1297.8
313.15 K, x2 = 0.9 | 865.647 | 1191.4
313.15 K, x2 = 0.951 | 822.053 | 1125.9
315.65 K, x2 = 0 | 1164.06 | 1666.7
315.65 K, x2 = 0.055 | 1157.86 | 1687.6
315.65 K, x2 = 0.098 | 1151.33 | 1675.8
315.65 K, x2 = 0.193 | 1134.51 | 1644.8
315.65 K, x2 = 0.296 | 1113.71 | 1606.7
315.65 K, x2 = 0.399 | 1089.03 | 1561.9
315.65 K, x2 = 0.5 | 1060.02 | 1509.9
315.65 K, x2 = 0.598 | 1026.37 | 1450.1
315.65 K, x2 = 0.701 | 984.31 | 1377.9
315.65 K, x2 = 0.799 | 931.919 | 1291.2
315.65 K, x2 = 0.9 | 863.489 | 1184.2
315.65 K, x2 = 0.951 | 819.788 | 1118.4
318.15 K, x2 = 0 | 1162.29 | 1660.8
318.15 K, x2 = 0.055 | 1156.21 | 1682.5
318.15 K, x2 = 0.098 | 1149.67 | 1670.7
318.15 K, x2 = 0.193 | 1132.83 | 1639.5
318.15 K, x2 = 0.296 | 1112 | 1601.3
318.15 K, x2 = 0.399 | 1087.29 | 1556.4
318.15 K, x2 = 0.5 | 1058.22 | 1504.2
318.15 K, x2 = 0.598 | 1024.52 | 1444.2
318.15 K, x2 = 0.701 | 982.388 | 1371.7
318.15 K, x2 = 0.799 | 929.9 | 1284.6
318.15 K, x2 = 0.9 | 861.326 | 1177.1
318.15 K, x2 = 0.951 | 817.518 | 1110.9
320.65 K, x2 = 0 | 1160.51 | 1654.8
320.65 K, x2 = 0.055 | 1154.57 | 1677.4
320.65 K, x2 = 0.098 | 1148.03 | 1665.5
320.65 K, x2 = 0.193 | 1131.15 | 1634.3
320.65 K, x2 = 0.296 | 1110.29 | 1596
320.65 K, x2 = 0.399 | 1085.54 | 1550.9
320.65 K, x2 = 0.5 | 1056.43 | 1498.5
320.65 K, x2 = 0.598 | 1022.67 | 1438.3
320.65 K, x2 = 0.701 | 980.467 | 1365.5
320.65 K, x2 = 0.799 | 927.874 | 1278
320.65 K, x2 = 0.9 | 859.158 | 1170
320.65 K, x2 = 0.951 | 815.245 | 1103.5
323.15 K, x2 = 0 | 1158.73 | 1648.9
323.15 K, x2 = 0.055 | 1152.94 | 1672.4
323.15 K, x2 = 0.098 | 1146.39 | 1660.5
323.15 K, x2 = 0.193 | 1129.49 | 1629.2
323.15 K, x2 = 0.296 | 1108.59 | 1590.7
323.15 K, x2 = 0.399 | 1083.8 | 1545.5
323.15 K, x2 = 0.5 | 1054.64 | 1492.9
323.15 K, x2 = 0.598 | 1020.83 | 1432.5
323.15 K, x2 = 0.701 | 978.549 | 1359.5
323.15 K, x2 = 0.799 | 925.853 | 1271.4
323.15 K, x2 = 0.9 | 856.995 | 1163
323.15 K, x2 = 0.951 | 812.98 | 1096.1
